Source: patent US10940139B2, “Compounds that interact with the Ras superfamily for the treatment of cancers, inflammatory diseases, rasopathies, and fibrotic disease” (Shy Therapeutics LLC, priority 2017, dated 2021)

Biological target: KRas G12D/Q61H double mutant (Homo sapiens (Human), UniProt P01116, G12D/Q61H)
Assay: Ras GTP binding domain inhibition assay (labeled GTP)
Settings: 20 μM compound; KRas G12D/Q61H double mutant; read-out: % Inhibition at 20 μM of K-Ras mutant and wild-type protein, KRas G12D Q61H
Protocol: Buffer-I: • 50 mM Tris, pH 7.5 • 150 mM NaCl (optional) • 1 mM MgCl2 • 1 mM DTT. • KRas G12D mutant protein was expressed as a His-tagged protein. Purified His-KRas G12D protein was diluted in buffer-I to a final concentration of 3-10 μg/ml. • 200 μl of the diluted His-KRas G12D protein was added to a nickel coated 96 well plate and incubated overnight at 4° C. • The next day, wells were washed 3× in 200 μl of Buffer-I. • Then 200 μl of Buffer-I were added to each well in the presence of 1% DMSO. • Tested compounds were added to the protein-coated wells at a concentration of 20 μM, and incubated for 3 hours at room temperature. While performing IC50 measurements a serial dilution of all tested concentrations was prepared.
Then 22 μl of Cy3-GTP or Cy5-GTP was added to each well. The labeled GTP was incubated for 45 min. at room temperature. • Following GTP incubation, wells were washed 3× in Buffer-I, and 200 μl of Buffer-I were added to each well. • Following washes, the amount of bound labeled-GTP was measured with an Eppendorf AF2200 plate reader.
By substituting KRas G12D mutant protein with KRas G12C mutant, KRas wild type, KRas Q61H mutant, KRas G12D/Q61H double mutant or KRas G12C/Q61H double mutant under the assay conditions described above, KRas G12C mutant KRas wild type, KRas Q61H mutant, KRas G12D/Q61H double mutant and KRas G12C/Q61H double mutant inhibition, respectively, were each determined.

KRas G12D/Q61H double mutant, sequence (P01116-2 other isoform, or with tags, fused parts or gaps G12D/Q61H): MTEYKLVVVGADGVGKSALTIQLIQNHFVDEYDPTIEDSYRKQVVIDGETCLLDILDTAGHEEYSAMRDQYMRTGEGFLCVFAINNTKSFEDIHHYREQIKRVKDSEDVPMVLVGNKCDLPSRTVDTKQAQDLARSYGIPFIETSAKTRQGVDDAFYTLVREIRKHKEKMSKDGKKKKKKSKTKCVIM

| Structure (SMILES) | inhibition at 20 µM [%] |
| --- | --- |
| CN(Cc1ccccc1C(F)(F)F)S(=O)(=O)CCc1ccccc1[N+](=O)[O-] | 25 to 50 |
| COc1ccc(CCN2CCN(c3ccc(C#N)c(C(F)(F)F)c3)CC2)cc1 | 25 to 50 |
| CCN(C(=O)c1cccc(-n2cccn2)c1)c1ccc(C#N)c(Cl)c1 | 1 to 25 |
| COc1ccc(Cl)cc1CN(c1ccccc1F)S(=O)(=O)C(C)C | 25 to 50 |
| FC(F)Oc1ccc(N2CCOC(c3ccc(Br)cc3)C2)nc1 (stereo not drawn) | 25 to 50 |
| CCCn1c(CNc2cccc(Cl)c2OCCOCC)nc2cc(S(=O)(=O)N(C)C)ccc21 | 25 to 50 |
| COc1ccc(C)cc1-n1ccc(C(=O)N2CCCC2C(O)C(F)(F)F)n1 (stereo not drawn) | 1 to 25 |
| Cc1ccc(OCc2ccc(C(=O)N(CCC#N)CC3CCC3)o2)c(C)c1 | 51 to 75 |
| CCOc1ccc(C2=NN(C(=O)CC)C(c3ccc(CC)cc3)C2)cc1 (stereo not drawn) | 25 to 50 |
| CC(C)CC(NC(=O)OC(C)(C)C)c1noc(Cc2c[nH]c3ccccc23)n1 (stereo not drawn) | 1 to 25 |
| COC(=O)C1CCN(S(=O)(=O)NCCOc2ccc(C(C)(C)C)cc2)CC1 | 25 to 50 |
| NCC(=O)NCc1ccc(Oc2ccc(F)c(F)c2)cc1C(F)(F)F | 1 to 25 |
| OCC1(Cc2ccccc2)CCCN1c1nc(-c2ccccn2)nc2c1CCC2 (stereo not drawn) | 25 to 50 |
| Cc1ccc(C(=O)Oc2cccc(C3CN(C(=O)c4ccc(C)s4)CCO3)c2)s1 (stereo not drawn) | 1 to 25 |
| COC(=O)c1ccc(CN2CC(NC(=O)OC(C)(C)C)CCC2C(F)(F)F)cc1 (stereo not drawn) | 25 to 50 |
| O=[N+]([O-])c1cc(C(F)(F)F)ccc1NCc1ccc2c(c1)OCCCO2 | 25 to 50 |

| Structure (SMILES) | inhibition at 20 µM [%] |
| --- | --- |
| CCOc1ccc(CSc2nnc(-c3ccco3)n2-c2ccccc2)cc1OCC | 25 to 50 |
| COc1ccc(-c2cc(NC(=O)C3CC(=O)N(C(C)c4ccccc4)C3)ccc2OC)cc1 (stereo not drawn) | 1 to 25 |
| O=C(CSCc1cccc(F)c1)Nc1ccc(-c2ccccc2)cc1 | 25 to 50 |
| CCC(C)(C)c1ccc(Oc2ccc(NC(=O)NS(=O)(=O)c3ccc(C)cc3)cc2)cc1 | 51 to 75 |
| CCN(CC)S(=O)(=O)c1cccc(C(=O)N2N=C(c3ccccc3)CC2(O)C(F)(F)F)c1 (stereo not drawn) | 25 to 50 |
| CC(C)c1ccc(CSc2nnc(SCCNC(=O)C3CCCC3)s2)cc1 | 51 to 75 |
| CCc1noc(CN(CCN(Cc2nc(CC)no2)c2ccccc2)c2ccccc2)n1 | 51 to 75 |
| Cc1occc1C(=O)OCC(COC(=O)c1ccoc1C)NC(=O)OC(C)(C)C | 25 to 50 |
| CCN(c1ncc(C(=O)OC)s1)S(=O)(=O)c1ccc(C)c(C)c1 | 51 to 75 |
| CCNC(=O)COc1ccc(CN2CCN(C3CC3)c3ccc(F)cc32)cc1 | 1 to 25 |
| O=S(=O)(Cc1ccc(OC(F)(F)F)cc1)Nc1cccnc1-n1cccn1 | 25 to 50 |
| COC(=O)c1cc(NCc2cnc(C(C)(C)C)s2)ccc1Br | 25 to 50 |
| CC(C)(CN1CCN(c2cccc(Cl)c2)CC1)NS(=O)(=O)c1ccccc1 | 25 to 50 |
| CCOC(=O)c1c(NC(C)=O)sc(Cc2ccc3c(c2)OCO3)c1C | 25 to 50 |
| COC(=O)c1ccoc1COc1ccc(C(=O)c2ccc(F)cc2)cc1 | 51 to 75 |
| O=C(Oc1ccc(Oc2ccccc2)cc1)c1ccccc1-c1ccc(C(F)(F)F)cc1 | 25 to 50 |

Same assay, conditions: 20 μM compound; read-out: % Inhibition at 20 μM KRas G12D Q61H

| Structure (SMILES) | inhibition at 20 µM [%] |
| --- | --- |
| O=C(Nc1cccc(C(=O)Nc2nnc(-c3ccccn3)[nH]2)c1)c1cccnc1 | 25 to 50 |
| CCc1c(C)sc2[nH]c(-c3ccccn3)nc(=O)c12 | 25 to 50 |
| O=C(Nc1nc(-c2ccccn2)cs1)c1ccc(=O)n(Cc2ccccc2)n1 | 25 to 50 |
| CC(C)c1ccc2nc(-c3ccccn3)[nH]c(=O)c2c1 | 25 to 50 |
| Cc1ccccc1CC(=O)Nc1nnc(-c2ccccn2)[nH]1 | 25 to 50 |
| COc1c(C)cnc(CN2CCCCC2c2ncc[nH]2)c1C (stereo not drawn) | 25 to 50 |
| CC(c1ccc(Cl)cc1Cl)N(C)Cc1nnc(-c2ccccc2)o1 (stereo not drawn) | 25 to 50 |
| O=c1nc(-c2ccccn2)[nH]c2c1cnn2-c1cccc(C(F)(F)F)c1 | 25 to 50 |
| OC1CCC(Nc2nc(-c3ccccn3)nc3c2CCC3)CC1 (stereo not drawn) | 25 to 50 |
| Nc1nc(-c2ccccn2)nn1C(=O)Cc1csc(-c2ccccc2)n1 | 25 to 50 |
| O=C(Cc1ccc(Cl)cc1)Nc1nnc(-c2ccccn2)[nH]1 | 25 to 50 |
| O=C(Nc1nnc(-c2ccccn2)[nH]1)C1CCCN(C(=O)c2ccoc2)C1 (stereo not drawn) | 25 to 50 |
| Cc1cc(C(C)C)ccc1OCC(=O)N1N=CCC1(O)C(F)(F)F (stereo not drawn) | 25 to 50 |
| O=C(Nc1nnc(-c2ccccn2)[nH]1)c1ccncc1 | 25 to 50 |
| O=C(CCNS(=O)(=O)c1ccc2c(c1)CCCC2)Nc1nnc(-c2ccccn2)[nH]1 | 25 to 50 |
| O=C(Nc1nnc(-c2ccccn2)[nH]1)c1cc(Cl)sc1Cl | 25 to 50 |
| O=C(CSCc1ccccn1)Nc1nnc(-c2ccccn2)[nH]1 | 25 to 50 |
| CC(Nc1nc(-c2ccccn2)nc2c1CCC2)c1ccncc1 (stereo not drawn) | 25 to 50 |
| O=C(CCc1ccc(F)cc1)Nc1nnc(-c2ccccn2)[nH]1 | 25 to 50 |
| CCC(C)c1ccc(S(=O)(=O)N(C)C(c2ccccc2)c2ccccn2)cc1 (stereo not drawn) | 25 to 50 |
| CC(C1CC1)N(CC(F)(F)F)C(=O)Cc1ccc(Cl)cc1Cl (stereo not drawn) | 25 to 50 |

| Structure (SMILES) | inhibition at 20 µM [%] |
| --- | --- |
| CCc1cc2c(=O)[nH]c(-c3ccccn3)nc2s1 | 25 to 50 |
| Nc1nc(-c2ccccn2)nn1C(=O)CN1CCS(=O)(=O)CC1 | 25 to 50 |
| CC(C)Cc1noc(CN(C)CC23CC4CC(CC(C4)C2)C3)n1 | 25 to 50 |
| OC(CNc1nc(-c2ccccn2)nc2c1CCC2)COCC1CC1 (stereo not drawn) | 25 to 50 |
| COc1ccc(Br)cc1CN(C)C(C)c1nnc(-c2ccc(C)cc2)o1 (stereo not drawn) | 25 to 50 |
| O=C(c1ccc(COc2ccccc2)o1)N1CCCc2ccc(F)cc21 | 25 to 50 |
| Cc1noc(C)c1CNc1ccccc1Cc1ccccc1 | 25 to 50 |
| Cc1c(-c2ccccc2)sc2[nH]c(-c3ccccn3)nc(=O)c12 | 25 to 50 |
| CN(C)S(=O)(=O)c1ccc(CN2CCCc3cc(OC(F)(F)F)ccc32)o1 | 25 to 50 |
| O=C(CCNc1ncccn1)Nc1nnc(-c2ccccn2)[nH]1 | 25 to 50 |
| Cc1ccc(OCCn2c(CN3CCCCC3)nc3ccccc32)cc1 | 25 to 50 |
| O=C(CCc1ccccn1)Nc1nnc(-c2ccccn2)[nH]1 | 25 to 50 |
| CSc1nnc(CN(Cc2ccccc2)Cc2ccccc2)s1 | 25 to 50 |
| CC(C)Cc1noc(CNc2cc(C(F)(F)F)ccc2N2CCCC2)n1 | 25 to 50 |
| O=C(CCc1nc2ccccc2s1)Nc1nnc(-c2ccccn2)[nH]1 | 25 to 50 |
| CN1CCC(C(=O)Nc2nnc(-c3ccccn3)[nH]2)CC1=O (stereo not drawn) | 25 to 50 |
| O=C(Nc1nc(-c2ccccn2)cs1)c1ccc(=O)[nH]c1 | 25 to 50 |
| O=C(Nc1nnc(-c2ccccn2)[nH]1)C1CC=CCC1 (stereo not drawn) | 25 to 50 |
| COCCN(CCOC)c1nc(-c2ccccn2)nc2c1CCC2 | 25 to 50 |
| CN(Cc1ccc(C(=O)NCC(F)(F)F)cc1)Cc1ccc(F)cc1Cl | 25 to 50 |
| CCN(CC(=O)Nc1ccc(OC)cc1)Cc1coc(-c2ccc(C)cc2C)n1 | 25 to 50 |

| Structure (SMILES) | inhibition at 20 µM [%] |
| --- | --- |
| COC(=O)CCN(Cc1ccc(F)c(F)c1)c1nc(C(F)(F)F)ccc1C#N | 25 to 50 |
| O=C(Nc1nnc(-c2ccccn2)[nH]1)c1ccc(Oc2ccccc2)cc1 | 25 to 50 |
| O=c1nc(-c2ccccn2)[nH]c2scc(-c3ccco3)c12 | 25 to 50 |
| CC(=O)Nc1cccc(CNc2cc(C)nc(-c3ccccn3)n2)c1 | 25 to 50 |
| COc1ccc2c(c1)CCCN2C(=O)CN(Cc1ccco1)S(=O)(=O)c1ccc(C)cc1 | 25 to 50 |
| COc1ccc(OC)c(S(=O)(=O)N(Cc2ccccc2)Cc2ccccc2)c1 | 25 to 50 |
| Cc1nc(-c2ccccn2)[nH]c(=O)c1CCO | 25 to 50 |
| Cc1ccccc1OCCn1c(CN2CCCCC2)nc2ccccc21 | 25 to 50 |
| Cc1ccccc1Oc1ncccc1NCc1csc(-c2ccccn2)n1 | 25 to 50 |
| CCCCN(C(=O)c1cnn(-c2ccccc2)n1)c1ccccc1 | 25 to 50 |
| O=c1[nH]c(-c2cc(OCC(F)F)ccn2)nc2cc(F)c(F)cc12 | 25 to 50 |
| CN(Cc1ccccn1)Cc1nc2ccccc2n1C | 25 to 50 |
| FC(F)(F)c1ccnc(N2CCN(CCc3ccncc3)CC2)n1 | 25 to 50 |
| CN(Cc1ccc(C(F)(F)F)cc1)Cc1cc2c(cc1O)CCC2 | 25 to 50 |
| OC1CCC(Nc2nc(-c3ccccn3)nc3scc(-c4ccccc4)c23)CC1 (stereo not drawn) | 25 to 50 |
| CCN(CCNC(=O)c1cc(-c2cccnc2)on1)c1cccc(C)c1 | 25 to 50 |
| Cc1cc(C)n(CCCNC(=O)c2cc(S(=O)(=O)N3CCOCC3)ccc2N2CCCC2)n1 | 25 to 50 |
| COc1ccccc1OCc1ccc(C(=O)N2CCc3ccccc32)o1 | 25 to 50 |
| Fc1ccc(OCc2nnc(SCCCc3ccccc3)o2)cc1 | 25 to 50 |
